# Test results from patent publication US20260209260A1, “VECTORIZED NHC IRIDIUM(III) COMPLEXES AND USE THEREOF IN PHOTODYNAMIC THERAPY AND/OR DIAGNOSTIC” (CENTRE NATIONAL DE LA RECHERCHE SCIENTIFIQUE, priority 2022, published 2026).
# Where two headings read alike, the source gives them in different places.
# Experiments:
# Format in all cases: cell-based, Human
# [1] = tested on: Hela cervix cancer cells; assay: Cell viability assay (MTT), dark and blue light
# In short: (§1)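 Seeded cells attached overnight, were exposed to complexes for 8 h, received 10 min of 458 nm blue light (9.6 W LED array), then stayed in the dark until 72 h; parallel plates were kept dark throughout. MTT for 3 to 4 h, DMSO solubilization, absorbance at 570 nm.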
# [2] = tested on: Scaber bladder cancer cells; assay: Cell viability assay (MTT), dark and blue light
# In short: as §1
# [3] = tested on: MCF7 breast cancer cells; assay: Cell viability assay (MTT), dark and blue light
# In short: as §1
# [4] = tested on: MGHU3 bladder cancer cells; assay: Cell viability assay (MTT), dark and blue light
# In short: as §1
# [5] = tested on: cancer cells (all tumor cell lines tested); assay: Cell viability assay (MTT), summary over the cancer cell lines tested
# Method: Cells were grown in humidified incubators at 37° C. in 5% CO2. Murine MC3T3 osteoblast and NIH-3T3 fibroblast cells-used as non-tumor cell models-were cultured in a-MEM medium and DMEM medium supplemented with 10% fetal bovine serum (FBS) and 1% Penicillin/Streptomycin (P/S) antibiotics, respectively. Human T24 bladder, MGHU3 bladder, Scaber bladder, A549 lung, MCF7 breast, MiaPaCa2 pancreas cancer cells were cultured in DMEM medium supplemented with 10% FBS and 1% P/S antibiotics. […] Human Hela cervix and HepG2 liver cancer cells were cultured EMEM medium supplemented with 10% FBS and 1% P/S antibiotics.
# MTT reagent (3-(4,5-dimethylthiazol-2-yl)-2,5-diphenyltetrazolium bromide) was used to determine cell death as originally described by Mosmann. Briefly, cells were seeded from 5,000 to 10,000 cells/well in 24-well plates (1 mL) depending on the cell type and allowed to attach overnight. The complexes were prepared in DMSO. The concentration of the complexes was calculated based on the elemental composition of the complexes determined by the elemental analyses. All cell viability experiments were carried out with a fixed concentration of 0.1% (v/v) DMSO. After 72 h of treatment, cells were incubated at 37° C. and 5% CO2 with 25 μL of MTT solution (5 mg/ml; Sigma-Aldrich) in 24-well plates for 3 to 4 h. After solubilization with 500 μL of DMSO, formazan was quantified spectrophotometrically with a microplate reader at 570 nm absorbance (ClarioSTAR, BMG LabTech). […] All the results were calculated from data obtained in at least three independent experiments performed in triplicate.
# Two sets of experiments were conducted in parallel for each complex to be studied:
# 1. The cells were incubated with the different complexes (in the dark) for 72 h.
# 2. The cells were incubated for 8 h with the different complexes (in the dark), then irradiated for 10 min, followed by an incubation in the dark up to 72 h.
# [6] = tested on: PC-3 prostate cancer cells (PSMA-negative); assay: Cell viability assay (MTT), dark and blue light; settings: for Photosensitizing index (PI): PC3, dark vs blue light; for SI (vs MC3T3) PC-3 Blue: blue light 458 nm
# In short: (§2)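 Readout after 72 h: MTT reduction at 570 nm. Light condition: 8 h dark loading, 10 min irradiation at 458 nm (LEDs, 9.6 W), dark to 72 h; control condition kept dark for the full 72 h.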
# [7] = tested on: C4-2B prostate cancer cells (PSMA-positive); assay: Cell viability assay (MTT), dark and blue light; settings: for Photosensitizing index (PI): dark vs blue light
# In short: as §2
# [8] = tested on: 22rV1 prostate cancer cells (PSMA-positive); assay: Cell viability assay (MTT), dark and blue light; settings: for Photosensitizing index (PI): 22Rv1, dark vs blue light
# In short: as §2
# [9] = PC3, blue light, read-out: GI50
# [10] = in the dark, 72 h, read-out: GI50 PC-3 Dark
# [11] = 8 h in the dark, blue light 458 nm 10 min, then dark up to 72 h, read-out: GI50 C4-2b Blue
# [12] = C4-2b, blue light, read-out: GI50
# [13] = in the dark, 72 h, read-out: GI50 C4-2b Dark
# [14] = 22Rv1, blue light, read-out: GI50
# [15] = 8 h in the dark, blue light 458 nm 10 min, then dark up to 72 h, read-out: GI50 22Rv1 Blue
# [16] = in the dark, 72 h, read-out: GI50 22Rv1 Dark
structure (smiles),measurement,setting,value
F[P-](F)(F)(F)(F)F.O=C(CCCC[C@@H]1SC[C@@H]2NC(=O)N[C@@H]21)NCCCn1cc[n+]2[c]1[Ir-3]13([c]4ccccc4-c4sc5ccccc5[n+]41)([c]1ccccc1-c1sc4ccccc4[n+]13)[n+]1ccccc1-2 [I-k],GI50,"[1]; 8 h in the dark, blue light 458 nm 10 min, then dark up to 72 h, read-out: GI50 HeLa Blue",6.5 µM
same,SI (vs NIH-3T3) HeLa Dark,[1]; dark,1.5
same,Photosensitizing index (PI) HeLa,[1]; dark vs blue light 458 nm,7.8
same,GI50,"[1]; in the dark, 72 h, read-out: GI50 HeLa Dark",50.6 µM
same,GI50,"[2]; 8 h in the dark, blue light 458 nm 10 min, then dark up to 72 h, read-out: GI50 Scaber Blue",1.8 µM
same,SI (vs MC3T3) Scaber Blue,[2]; blue light 458 nm,10.7
same,SI (vs NIH-3T3) Scaber Blue,[2]; blue light 458 nm,17.3
same,SI (vs MC3T3) Scaber Dark,[2]; dark,1.0
same,SI (vs NIH-3T3) Scaber Dark,[2]; dark,2.9
same,Photosensitizing index (PI) Scaber,[2]; dark vs blue light 458 nm,14.4
same,GI50,"[2]; in the dark, 72 h, read-out: GI50 Scaber Dark",25.9 µM
same,GI50,"[3]; 8 h in the dark, blue light 458 nm 10 min, then dark up to 72 h, read-out: GI50 MCF7 Blue",1.5 µM
same,SI (vs NIH-3T3) MCF7 Blue,[3]; blue light 458 nm,20.7
same,SI (vs MC3T3) MCF7 Dark,[3]; dark,1.7
same,Photosensitizing index (PI) MCF7,[3]; dark vs blue light 458 nm,9.9
same,GI50,"[3]; in the dark, 72 h, read-out: GI50 MCF7 Dark",14.9 µM
same,GI50,"[4]; 8 h in the dark, blue light 458 nm 10 min, then dark up to 72 h, read-out: GI50 MGHU3 Blue",2.9 µM
same,SI (vs MC3T3) MGHU3 Blue,[4]; blue light 458 nm,6.8
same,SI (vs NIH-3T3) MGHU3 Blue,[4]; blue light 458 nm,10.7
same,Photosensitizing index (PI) MGHU3,[4]; dark vs blue light 458 nm,15.9
same,GI50,"[4]; in the dark, 72 h, read-out: GI50 MGHU3 Dark",46.1 µM
same,"selectivity for cancer cells over non-tumor cells, in words",[5],most selective effects under irradiated conditions
same,"PI values, mean over cancer cells",[5]; dark vs blue light 458 nm,12.9 fold
same,"PI values, median over cancer cells",[5]; dark vs blue light 458 nm,12.2 fold
same,"GI50 values, range over tumor cell lines, dark",[5]; in the dark,little toxicity against tumor cells under dark conditions
F[P-](F)(F)(F)(F)F.O=C(O)CC[C@H](NC(=O)N[C@@H](CCCCNC(=O)CCn1cc[n+]2[c]1[Ir-3]13([c]4cccc5ccc6ccc[n+]1c6c45)([c]1cccc4ccc5ccc[n+]3c5c14)[n+]1ccccc1-2)C(=O)O)C(=O)O [III-i],GI50,"[6]; 8 h in the dark, blue light 458 nm 10 min, then dark up to 72 h, read-out: GI50 PC-3 Blue",8.7 µM
same,GI50,[6]; [9],8.72 µM
same,Photosensitizing index (PI),[6],6.6
same,GI50,"[6]; PC3, dark, read-out: GI50",57.2 µM
same,SI (vs MC3T3) PC-3 Blue,[6],4.7
same,SI (vs MC3T3) PC-3 Dark,[6],4.4
same,SI (vs NIH-3T3) PC-3 Dark,[6],>1.7
same,GI50,[6]; [10],57.2 µM
same,GI50,[7]; [11],2.7 µM
same,GI50,[7]; [12],2.69 µM
same,Photosensitizing index (PI),[7]; C4-2b,5.5
same,GI50,"[7]; C4-2b, dark, read-out: GI50",14.8 µM
same,SI (vs NIH-3T3) C4-2b Blue,[7]; blue light 458 nm,20.7
same,SI (vs NIH-3T3) C4-2b Dark,[7]; dark,>6.7
same,GI50,[7]; [13],14.8 µM
same,GI50,[8]; [14],1.96 µM
same,Photosensitizing index (PI),[8],6.4
same,GI50,"[8]; 22Rv1, dark, read-out: GI50",12.5 µM
same,GI50,[8]; [15],2 µM
same,SI (vs MC3T3) 22Rv1 Blue,[8]; blue light 458 nm,20.7
same,SI (vs MC3T3) 22Rv1 Dark,[8]; dark,20.0
same,SI (vs NIH-3T3) 22Rv1 Dark,[8]; dark,>8
same,GI50,[8]; [16],12.5 µM
F[P-](F)(F)(F)(F)F.O=C(O)CC[C@H](NC(=O)N[C@@H](CCCCNC(=O)CCn1cc[n+]2[c]1[Ir-3]13([c]4c(sc5ccccc45)-c4cccc[n+]41)([c]1c(sc4ccccc14)-c1cccc[n+]13)[n+]1ccccc1-2)C(=O)O)C(=O)O [III-j],GI50,[6]; [9],1.94 µM
same,Photosensitizing index (PI),[6],30.0
same,GI50,"[6]; PC3, dark, read-out: GI50",58.2 µM
same,SI (vs MC3T3) PC-3 Blue,[6],6.6
same,SI (vs MC3T3) PC-3 Dark,[6],>4.3
same,SI (vs NIH-3T3) PC-3 Dark,[6],>1.7
same,GI50,[6]; [10],58.2 µM
same,GI50,[7]; [11],0.52 µM
same,GI50,[7]; [12],0.52 µM
same,Photosensitizing index (PI),[7]; C4-2b,21.7
same,GI50,"[7]; C4-2b, dark, read-out: GI50",11.3 µM
same,SI (vs MC3T3) C4-2b Blue,[7]; blue light 458 nm,24.0
same,SI (vs NIH-3T3) C4-2b Blue,[7]; blue light 458 nm,20.7
same,SI (vs MC3T3) C4-2b Dark,[7]; dark,>22.1
same,SI (vs NIH-3T3) C4-2b Dark,[7]; dark,>8.8
same,GI50,[7]; [13],11.3 µM
same,GI50,[8]; [14],0.28 µM
same,Photosensitizing index (PI),[8],35.4
same,GI50,"[8]; 22Rv1, dark, read-out: GI50",9.9 µM
same,GI50,[8]; [15],0.28 µM
same,SI (vs MC3T3) 22Rv1 Blue,[8]; blue light 458 nm,44.0
same,SI (vs NIH-3T3) 22Rv1 Blue,[8]; blue light 458 nm,38.0
same,SI (vs NIH-3T3) 22Rv1 Dark,[8]; dark,>10.1
same,GI50,[8]; [16],9.9 µM
